From patent US12241094B2, “Phenazine degrading agents and related compositions, methods and systems for interfering with viability of bacteria” (priority 2016, dated 2025)
Entries after “also recorded” stand apart in the source; their conditions may differ. Marks after values point to notes of the source that are not given here.

B1: Y156F (protein)
chain: MTGKTKPAIIGGVAITALAAAGLGVWLFTDGRGGRSTTEPVTMTLDVKNDQVAKHDFGKPGMDVGDMDIFSDILSVDGKQVGYDGGACFFTNVTPDNPMTYCELTIHLDAGEIFARSLTPHTLAPFTMAITGGTGEYANSKGELTVSGVATPDEKFELKLTK

What was measured:
PA14 [1] = assay: Redox cycles over 7 days and support of survival (Table 1); format: cell-based, P. aeruginosa
PA14 [2] = assay: Reduction of redox-active compounds by PA14 (Table 1); format: cell-based, P. aeruginosa
[3] = oxidized form, values from references a, c, d; cited from earlier work
PodA30-162 = assay: Alternative substrate utilization by PodA; format: biochemical, Mycobacterium fortuitum; conditions: for demethylation of alternative substrate by PodA30-162 (HPLC end point): 50 μg mL^−1 PodA30-162, 4 hours, dark
Procedure: Chemical formula diagrams of methylated substrates and their expected demethylated products, based on the prediction model, are shown, wherein arrows indicate demethylation catalyzed by PodA. Mixtures were analyzed by HPLC (right graphs) after 4 hours to determine the resulting products of each reaction. Standards for each product were run to determine retention times (indicated for each molecule with arrows). Only N-methylated phenazines were altered by incubation with PodA30-162. […] PMS, phenazine methosulfate.
Enzyme activity and analysis. PYO demethylation by PodA30-162 was first determined by HPLC analysis as described previously (6, 9). To detect formaldehyde evolution, 150 nM protein was mixed with 50 μM PYO in 1 mL of 20 mM Tris pH 7.6 amended with 200 μL Nash reagent (2 M ammonium acetate, 50 mM acetic acid, 20 mM acetylacetone) and incubated at 55° C. until the reaction proceeded to completion (37, 38). The products were determined by HPLC using the same method as used for phenazine quantification. To monitor the formation of reduced phenazine, protein and 50 μM PYO were placed into an anaerobic chamber (Coy Laboratory Products) under an atmosphere of H2/N2 (5:95) and left overnight before allowing the reaction to proceed. […] A BioTek Synergy 4 microplate reader (BioTek) plate reader in the anaerobic chamber was used to measure the emission spectrum of products with excitation at 250 nm. […] Reaction progress was monitored by measuring absorbance at 313 nm (40) every 0.5 seconds for 5 minutes. […] Kinetic parameters were calculated in Microsoft Excel using the Solver plug-in and fitting data to ideal Michaelis-Menton plots with non-linear regression of experimental data (41). For measurements of the rate of methoxy-PMS demethylation, 300 nM protein was used and methoxy-PMS loss from the reaction mixture was monitored at 500 nm wavelength. […] The stimulatory effects of flavin or 2-oxoglutarate addition was determined by adding 25 μM flavin or 2-oxoglutarate to 20 μM PYO and 15 nM PodA30-162 and monitoring the reaction. […]

[4] = tested on: P. aeruginosa PA14 biofilms; assay: Biofilm formation, surface coverage (chambered coverglass, DAPI); format: cell-based; conditions: 5 hours; PodA30-162 2 μg mL^−1, DNase 20 μg mL^−1; vs. PodA-inactive
Procedure: Biofilm experiments. For all experiments involving inactivated PodA, either the E154A mutant or PodA30-162 that was subjected to a 1 hour treatment at 98° C. was used. To test the ability of PodA30-162 to degrade PYO in the presence of DNA, genomic DNA (gDNA) from P. aeruginosa PA14 was used in modified versions of previously described assays (59). For experiments using DNA pellets, 0.5 mg of gDNA was pelleted in the presence of 300 mM sodium acetate, pH 5.2 and 70% ethanol. Pellets were washed with 70% ethanol and dried. 200 μL of 800 μM PYO was added to the gDNA pellet without mixing and left to sit at room temperature for 6 hours to allow for diffusion of PYO into the gDNA pellet. The pellet was washed once with 70% EtOH, and submerged in a solution containing 10 mM Tris, pH 7.0 and 40% isopropanol. The pellet remained blue, consistent with an association of PYO with DNA. PodA30-162 was added to the isopropanol solution to a final concentration of 2 μg mL^−1 and left to sit for 3 hours to allow for the reaction to proceed. Tubes were imaged before and after PodA30-162 treatment. For experiments using solubilized gDNA, a 400 μg mL^−1 solution of gDNA was mixed with PYO and allowed to equilibrate for 6 hours. The PYO gDNA mixture was amended with 1 μg mL^−1 PodA30-162 and loss of PYO was monitored on a BioTek Synergy 4 microplate reader (BioTek) plate reader at 690 nm. Standards were included to quantify PYO loss over time. To assess biofilm formation in the presence of PodA30-162, biofilms were grown in Nunc Lab-Tek chambered coverglass slides (8-well, 0.8 cm^2 area, supplier #155411) using a modified protocol (22). PA14 was inoculated into succinate minimal medium and grown overnight to stationary phase. Cells were resuspended in fresh medium and diluted to a starting OD500 of 0.5 in succinate minimal medium. PodA30-162 (2 μg mL^−1, final concentration) or DNase (20 μg mL^−1) (22) was added and 250 μL was added to each well of the 8-well chambered coverglass. Cultures were grown for 5 hours at 37° C. and 100 rpm (Innova 44 shaking incubator, New Brunswick) in a humidified chamber. After incubation, liquid was removed from each well by drawing with a pipet tip placed in the corner of each well and chambers were washed twice with 400 μL of biofilm wash (Tris buffer, pH 7.6 and 100 mM NaCl) to remove planktonic and loosely bound cells. Attached biomass was stained by adding 450 μL biofilm wash containing 10 μg mL^−1 DAPI (4′,6-diamidino-2-phenylindole) (Santa Cruz Biotechnology). Surface associated biomass was imaged on a Leica TCS SPE confocal microscope with a ACS APO 40×/1.15 oil immersion objective. A 405 nm solid-state laser was used for excitation, and data was collected from 420-500 nm. […]

[5] = PYO demethylation by purified PodA30-162 and mutants (spectrophotometric/HPLC); format: biochemical; conditions: PYO demethylation; 60 nM mutant protein
Procedure: Enzyme activity and analysis. PYO demethylation by PodA30-162 was first determined by HPLC analysis as described previously (6, 9). To detect formaldehyde evolution, 150 nM protein was mixed with 50 μM PYO in 1 mL of 20 mM Tris pH 7.6 amended with 200 μL Nash reagent (2 M ammonium acetate, 50 mM acetic acid, 20 mM acetylacetone) and incubated at 55° C. until the reaction proceeded to completion (37, 38). The products were determined by HPLC using the same method as used for phenazine quantification. To monitor the formation of reduced phenazine, protein and 50 μM PYO were placed into an anaerobic chamber (Coy Laboratory Products) under an atmosphere of H2/N2 (5:95) and left overnight before allowing the reaction to proceed. To generate reduced PYO and 1-OH-PHZ, 50 μM were mixed with 1 mM sodium dithionite. The formation of reduced phenazine products was assayed visually under UV illumination (39). A BioTek Synergy 4 microplate reader (BioTek) plate reader in the anaerobic chamber was used to measure the emission spectrum of products with excitation at 250 nm. To determine the activity of PodA30-162 in the presence of glycerol, salts, or varying pH, 30 nM protein was suspended in 500 μL buffer, 40 μM PYO was mixed with 2× solution containing the buffer of interest (500 μL), and solutions were preheated to 30 C. For pH range measurements, the following buffers were used (40 mM, adjusted with KOH): acetic acid, pH 4.9; MES, pH 5.4 and 5.7; HEPES, pH 6.1; Tris, pH 6.9 and 7.5; Bicine, pH 7.8, 8.3 and 8.7; CHES, pH 9.4. To measure reaction rates, cuvettes containing the 2×PYO solution were placed in a Evolution 260Bio UV-Vis spectrophotometer (Thermo Scientific) and 500 μL of 30 nM protein was added at time 0 (15 nM protein and 20 μM PYO, final concentration). Reaction progress was monitored by measuring absorbance at 313 nm (40) every 0.5 seconds for 5 minutes. To measure kinetic parameters (kcat, Km) 15 nM protein was used in a reaction buffer of Bicine, pH 7.8; reactions were monitored as before with measurements every 0.2 seconds. The rate from the first 10 seconds of the reaction was used for the determination of kinetic parameters. Kinetic parameters were calculated in Microsoft Excel using the Solver plug-in and fitting data to ideal Michaelis-Menton plots with non-linear regression of experimental data (41). For measurements of the rate of methoxy-PMS demethylation, 300 nM protein was used and methoxy-PMS loss from the reaction mixture was monitored at 500 nm wavelength. Methoxy-PMS was purchased from TCI America. For assays with mutant proteins, 60 nM protein was used. The stimulatory effects of flavin or 2-oxoglutarate addition was determined by adding 25 μM flavin or 2-oxoglutarate to 20 μM PYO and 15 nM PodA30-162 and monitoring the reaction. Experiments testing alternative substrates were carried out using 1 mL reaction volumes containing 20 mM Tris (pH 7.6) and 50 μg mL^−1 PodA30-162. Alternative substrates tested were 10-methylphenothiazine (AlfaAesar), phenazine methosulfate (AlfaAesar), methoxyphenazine methosulfate (TCI America), and 4-keto-N-ethylphenazine. 4-keto-N-ethylphenazine was synthesized from phenazine ethosulfate (Sigma-Aldrich) by incubating under fluorescent light overnight followed by purification by HPLC as described (6, 42). As phenazine methosulfate is light sensitive and spontaneously converts to PYO in the presence of light, all reactions were carried out in the dark, and activity was assessed by end point analysis by HPLC after 4 hours (9).

Molecule | # of Redox cycles over 7 days (PA14 [1]) | Support survival? (PA14 [1]) | Reduction by PA14? (PA14 [2]) | E^0, (vs. NHE) [3] | other results
O=C1c2ccc(S(=O)(=O)O)cc2C(=O)c2ccc(S(=O)(=O)O)cc21 [2,6-AQDS] | No cycle | No | Yes (very slowly) | −184^d mV | 
CCn1c2cccc(=O)c-2nc2ccccc21 [4-keto-N-ethylphenazine] |  |  |  |  | demethylation of alternative substrate by PodA30-162 (HPLC end point) (PodA30-162): not demethylated or de-ethylated
DNase [reference compound] |  |  |  |  | biofilm surface coverage [4]: inhibited biofilms; also recorded: decreased surface coverage
COS(=O)(=O)[O-].COc1cccc2c1nc1ccccc1[n+]2C [methoxy-PMS, methoxyphenazine methosulfate] |  |  |  |  | methoxy-PMS demethylation over time (PodA30-162; 300 nM protein, 500 nm): initial burst of activity followed by a slower steady state; also recorded: reaction rate slows significantly after an initial burst
O=C(O)c1cccc2nc3ccccc3nc12 [PCA, Phenazine-1-carboxylate] | 22 | Yes | Yes | −114^a mV | 
CN1c2ccccc2Sc2ccccc21 [10-methylphenothiazine] |  |  |  |  | demethylation of alternative substrate by PodA30-162 (HPLC end point) (PodA30-162): not demethylated or de-ethylated
C[n+]1ccc(-c2cc[n+](C)cc2)cc1 [Paraquat] | No cycle | No | No | −446^e mV | 
B1 |  |  |  |  | wild type activity [5]: ~25%
